Where only a bound is given, the exact number is not on record here.

As a reminder, the melting point is the temperature of the solid-liquid transition. `COc1ccc(Cc2ccc3[nH]c(=S)[nH]c3c2)cc1OC` showed a melting point of 248 to 250 °C.

`O=C1c2ccccc2CCN1O` showed a melting point of 95 to 96 °C.

Regarding `CCCc1nc2c(N)nc3ccccc3c2n1CC(N)=O`, the melting point was over 300 °C.

Consider `CC(C)(C)c1cc(C=Nn2ccnc2)cc(C(C)(C)C)c1O`, for which the melting point lay within 171 to 174 °C.

Compound `CS(=O)(=O)c1ccc(-c2cnn(CC=C(Cl)Cl)c(=O)c2-c2ccc(F)cc2)cc1` registered a melting point of 150 to 152 °C.

`COCCCN1CCC(CNC(=O)c2cc(Cl)c(N)nc2OC)CC1`: the melting point was found to be 103 °C.

`O=C(CCCc1ccccc1)c1c(O)c2cccnc2n(-c2ccccc2)c1=O` gave a melting point of 200 to 202 °C.

For `Cc1c(N)c([N+](=O)[O-])cc2c(=O)c(C(=O)O)cn(-c3cc(N)c(F)cc3F)c12`, the melting point is over 280 °C.

The compound `CC12CC(F)C3C4CCC(=O)C=C4C=CC3C1CCC2=O` (stereo not drawn) displayed a melting point of 198 °C.

The compound `CCOC(=O)C1=C(C)N(C(C)=O)C(c2csc(C)n2)=NC1c1ccc(F)cc1` (stereo not drawn) came in with a melting point of 140 to 142 °C.

`Cc1cccc(C(=NO)c2ccc(Cl)cc2)c1O`: the melting point was 178 °C.

In turn, `O=c1[nH]c2ncc(-c3ccc(-c4ncc[nH]4)cc3)nc2n1CCC1CCOCC1` gave a melting point of 293 to 295 °C.

For `COC(=O)c1ccc(N)c(C(=O)C(=O)OC(=O)C(=O)c2cc(C(=O)OC)ccc2N)c1`, the melting point was 256 to 257 °C.

`CCc1nc(CC(=O)O)no1` yielded a melting point of 58 to 60 °C.

For the compound `O=C(O)CCc1cc2nc(C(F)(F)F)ccc2n1S(=O)(=O)c1cccc2cccnc12`, the melting point is 216 to 217 °C.

Turning to `COc1ccc(S(=O)(=O)Nc2cccnc2Nc2ccc(OC)nc2)cc1`, the melting point was in the range of 159 to 160 °C.

`Nc1nc2c(ncn2COC(CC(=O)OC23CC4CC(CC(C4)C2)C3)CC(=O)OC23CC4CC(CC(C4)C2)C3)c(=O)[nH]1` (stereo not drawn): the melting point was 283 to 285 °C.

`CCC1CC2C3CCC4=CC(=O)CCC4=C3CCC2(C)C1O` (stereo not drawn) gave a melting point of 124 to 126 °C.

In the case of `CCc1ccc(Nc2nc3cc([N+](=O)[O-])ccc3o2)cc1`, the melting point fell in the range of 172 to 173 °C.

Regarding `CCN1C(=O)C(C)(C)C(=O)N(C)c2cc(CN(CCn3cc(C)c4occc4c3=O)Cc3cccnc3COC)ccc21`, the melting point is 104 to 111 °C.

Consider `O=C(NCCNCC(O)COc1ccc(OCCOCC2CCC2)cc1)N1CCOCC1` (stereo not drawn), for which the melting point fell in the range of 91 to 93 °C.

`N=C(N)Nc1nc(-c2cccc(N)c2)cs1` gave a melting point of 180 to 182 °C.

Take `O=C(O)CS(=O)(=O)CCCCCn1nc(-c2ccccc2)c(-c2ccccc2)c1-c1ccccc1`: the melting point came to 200 °C.

Consider `CSc1c(CC(=O)O)ccc2c3ccccc3n(Cc3ccc(F)cc3)c12`, for which the melting point lay in the range of 156 to 157 °C.

With `CNC(=O)C(NC(=O)c1ccc(F)cc1C(F)(F)F)C(O)C(F)(F)F` (stereo not drawn), the melting point worked out at 212 °C.

For the compound `Cc1ccc2c(NCc3ccc(NC(=O)c4ccc(Br)cc4)cc3)nc(Cl)nc2c1`, the melting point was 295 to 298 °C.

For `CCOc1ccc(C2=NN(C3CCCC3)C(=O)[C@H]3CCCC[C@@H]23)cc1OCC` (relative stereo), the melting point was 111 to 114 °C.

`CC(c1ccc2c(c1)CCC(=O)N2)n1ccnc1` (stereo not drawn) gave a melting point of 185 °C.

As for `CC=Cn1c(C)c(C)c2cnnc(NCc3ccccc3)c21`, the melting point fell in the range of 130 to 131 °C.

The compound `O=C(O)/C=C/C=C/C=C/C1=Cc2cc(C(F)(F)F)ccc2OC1` gave a melting point of 208 to 210 °C.

Regarding `N#CCc1ccc(Cl)cc1C(=O)O`, the melting point came to 120 °C.

Compound `Cn1nc(C(F)(F)C(F)(F)F)c(C(F)(F)F)c1-n1cc(-c2ccc(Cl)c(C(=O)NC3CC3)c2)nn1` had a melting point of 150 to 152 °C.

Turning to `CC1N=NC2=CN=C(c3ccccc3Cl)c3cc(C(=O)Cl)ccc3N21` (stereo not drawn), the melting point is 295 to 297 °C.

`COC(=O)c1cc(O)ccc1N` registered a melting point of 154 to 155 °C.

`O=[N+]([O-])c1ccc(NCCO)nc1NCCO`: the melting point is 130 to 131 °C.

`CN1CCC2(CC1)SC(C(C(=O)OC(C)(C)C)N1C(=O)c3ccccc3C1=O)NC2C(=O)OCc1ccccc1` (stereo not drawn) had a melting point of 173 to 175 °C.

In turn, `CCCCCC(CC(=O)Nc1cc(C(N)=O)ccc1C(C)(C)C)c1ccc(C)cc1OC` (stereo not drawn) yielded a melting point of 175 to 177 °C.

In turn, `CCC(OC)(c1cccc(OCc2ccc3c(-c4ccoc4)cc(C#N)cc3c2)c1)c1nccs1` (stereo not drawn) gave a melting point of 156 to 157 °C.

As for `CCn1cc(-c2cccc(Cl)c2)c(=O)n1-c1cccc(C(F)(F)F)c1`, the melting point was 113 to 114 °C.

Compound `CCOC(=O)c1cnc2ccc(Cl)cc2c1Cl` returned a melting point of 87 to 88 °C.

`CC1(CCl)CC(SCc2c(C(F)(F)F)n[nH]c2Cl)=NO1` (stereo not drawn) returned a melting point of 105 to 107 °C.

Compound `CN(C)C=Nc1ccc2nnc(-c3ccc([N+](=O)[O-])o3)n2n1` yielded a melting point of 291 to 296 °C.

`N#Cc1ccc(N2C(=N)C3(CCSCC3)NC2=O)cc1C(F)(F)F`: the melting point lay within 226 to 227 °C.

As to `CCOCc1nc2c(N)nc3ccccc3c2n1CCCc1cc(-c2cccnc2)no1`, the melting point was in the range of 199 to 200 °C.

In the case of `CC(=O)c1cc2c(cc1NC(=O)c1sccc1S(=O)(=O)Nc1onc(C)c1Cl)OCO2`, the melting point lay within 191 to 193 °C.

Consider `COc1cc(NC(C)=O)ccc1N1CCN(CCCNc2c(C)c(=O)n(C)c(=O)n2C)CC1`, for which the melting point is 178 to 180 °C.

For the compound `CC(C)(C)OC(=O)N[C@@H](CC(=O)O)C(=O)OC(C)(C)C`, the melting point fell in the range of 97 to 99 °C.

In turn, `COc1cc(OC)nc(Oc2ccc3c(c2C(=O)O)OCO3)n1` displayed a melting point of 198 to 201 °C.

On to `Nc1nc2ccccc2c2c1ncn2CCCC(=O)c1ccccc1`, for which the melting point fell in the range of 209 to 211 °C.

`CC1CC(c2cc3c(F)cccc3s2)CCN1` (stereo not drawn) yielded a melting point of 63 to 65 °C.

Consider `Cc1coc(-c2ccccc2)c(-c2ccc(Cl)c(Cl)c2)c1=O`, for which the melting point turned out to be 104 °C.

With `FC(F)(F)c1cc(Cl)c(Oc2cc(C3CC3)[nH]n2)c(Cl)c1`, the melting point is 119 to 121 °C.

`c1coc(-c2nc(NCC3CC3)cc(-n3cccn3)n2)c1` came in with a melting point of 101 to 102 °C.

The compound `COc1cc(NCCCCCCN2CCN(CCCO)CC2)c2nccc(C)c2c1` displayed a melting point of 100 to 102 °C.

Compound `CS(=O)(=O)C=Cc1ccccc1` came in with a melting point of 77 to 79 °C.

With `CCCc1nc2c(N)nc3cc(OCC(=O)N4CCOCC4)ccc3c2s1`, the melting point fell in the range of 200 to 203 °C.

Compound `NS(=O)(=O)c1ccc(NC(=O)CNc2ccc(Cl)cc2)c(Cl)c1` showed a melting point of 185 °C.

In the case of `CCN(c1cc(Cl)c(Cl)cc1Cl)C(C(=O)O)c1ccccc1OC` (stereo not drawn), the melting point came to 92.7 °C.

`N=C(NO)c1ccc(-c2cccc(-c3nc4cc(C(=N)NO)ccc4[nH]3)c2O)cc1` had a melting point of 322 to 325 °C.

`N#CC1(N)CCOCC1` registered a melting point of 46 to 47 °C.

Turning to `CC(C)CCCC(C)C1CC(O)C2=C3C(O)CC4CC(OC(=O)c5ccccc5)CCC4(C)C3CCC21C` (stereo not drawn), the melting point lay within 178 to 179 °C.

For the compound `CN1C(=O)CC[C@]2(C)c3ccc(Sc4nc5cccc(Cl)c5s4)cc3CC[C@@H]12`, the melting point was 90 to 91 °C.

Compound `CCOC(=O)C(=CNc1nnc(-c2cccnc2)s1)C(=O)OCC` returned a melting point of 144 to 145 °C.

(Values after a melting point compilation (Tetko et al.; mined from patent text by program, amines drawn as free bases though some values may be those of a salt).)
